ChEMBL document CHEMBL1140461, “Design and synthesis of thiazole-5-hydroxamic acids as novel histone deacetylase inhibitors” (Bioorg Med Chem Lett, 2007)

What was measured:
Histone deacetylase = test: Inhibition of HDAC activity in HeLa cell nuclear extract by fluorescent assay; assay type: protein assay, Homo sapiens
MCF7 = test: Antiproliferative activity against human MCF7 cells; assay type: functional

IC50 (Histone deacetylase)	GI50 (MCF7)	SMILES
> 100 µM	> 100 µM	CN1CCN(c2ncc(C(=O)NO)s2)CC1
> 100 µM	4 µM	O=C(NO)c1cnc(N2CCN(Cc3ccccc3)CC2)s1
4.7 µM	2.5 µM	O=C(/C=C/c1cnc(N2CCN(S(=O)(=O)c3ccc(F)cc3)CC2)s1)NO
0.22 µM	2 µM	O=C(NO)c1cnc(N2CCN(S(=O)(=O)c3ccc4ccccc4c3)CC2)s1
0.09 µM	0.35 µM	Cc1ccc(S(=O)(=O)N2CCN(c3ncc(C(=O)NO)s3)CC2)cc1
15 µM	3 µM	O=C(/C=C/c1cnc(N2CCN(S(=O)(=O)c3ccc(C(F)(F)F)cc3)CC2)s1)NO
0.2 µM	1.8 µM	O=C(NO)c1cnc(N2CCN(S(=O)(=O)c3ccc(-c4ccccc4)cc3)CC2)s1
0.44 µM	3 µM	O=C(/C=C/c1cnc(N2CCN(S(=O)(=O)c3ccccc3)CC2)s1)NO
0.07 µM	2 µM	COc1ccc(S(=O)(=O)N2CCN(c3ncc(C(=O)NO)s3)CC2)cc1OC
0.4 µM	10 µM	O=C(NO)c1cnc(N2CCN(S(=O)(=O)c3ccc([N+](=O)[O-])cc3)CC2)s1
2.8 µM	> 100 µM	CC(=O)N1CCN(c2ncc(C(=O)NO)s2)CC1
> 100 µM	> 100 µM	O=C(NO)c1cnc(N2CCN(CCc3ccccc3)CC2)s1
3.5 µM	40 µM	O=C(NO)c1cnc(N2CCN(C(=O)c3ccccc3)CC2)s1
32 µM	20 µM	O=C(NO)c1cnc(N2CCN(C(=O)Cc3ccccc3)CC2)s1
3.2 µM	6 µM	O=C(/C=C/c1cnc(N2CCN(S(=O)(=O)c3ccc(OC(F)(F)F)cc3)CC2)s1)NO
1.6 µM	5 µM	O=C(/C=C/c1cnc(N2CCN(S(=O)(=O)c3ccc([N+](=O)[O-])cc3)CC2)s1)NO
0.16 µM	4 µM	COc1ccc(S(=O)(=O)N2CCN(c3ncc(/C=C/C(=O)NO)s3)CC2)cc1OC
2.6 µM	4 µM	O=C(NO)c1cnc(N2CCN(S(=O)(=O)c3ccc(C(F)(F)F)cc3)CC2)s1
0.05 µM	0.7 µM	O=C(/C=C/c1cnc(N2CCN(S(=O)(=O)c3ccc4ccccc4c3)CC2)s1)NO
0.57 µM	10 µM	O=C(NO)c1cnc(N2CCN(S(=O)(=O)c3ccccc3)CC2)s1
0.15 µM	3.5 µM	O=C(NO)c1cnc(N2CCN(S(=O)(=O)c3ccc(F)cc3)CC2)s1
1.2 µM	4 µM	O=C(NO)c1cnc(N2CCN(S(=O)(=O)c3ccc(OC(F)(F)F)cc3)CC2)s1
11 µM	15 µM	O=C(/C=C/c1cnc(N2CCN(S(=O)(=O)c3ccc(-c4ccccc4)cc3)CC2)s1)NO
0.55 µM	2 µM	Cc1ccc(S(=O)(=O)N2CCN(c3ncc(/C=C/C(=O)NO)s3)CC2)cc1
